Data taken from patent US20200361871A1 (Enterprise Therapeutics Ltd., priority 2018, published 2020).
“Also recorded” adds a separate entry of the source.

Assays:
[1] = Storage of forms of Compound 36 at 40° C./75% RH in open vials, XRPD; assay type: physicochemical; conditions: open vial, 7 days
Description: Form A was stored at 40° C./75% RH, in an open vial. […] Therefore, Form A is stable to exposure to elevated temperature and humidity for up to 2 weeks and no evidence of a hydrated form was observed.
One sample of each of the new forms (Forms B, C, D, E, E+extra peaks, F, G and H) was analysed by ^1H NMR, TGA, DSC and stored at 40° C./75% RH. Results are summarised in Table E with Form A for comparison.

[2] = biological target: human TMEM16A (TMEM16Aabc variant) (Homo sapiens, UniProt Q5XXA6, DEL476-501, form not given); assay: Automated whole-cell patch clamp (Qpatch) TMEM16A potentiator assay in FRT cells stably expressing human TMEM16A; assay type: cell-based; conditions: for % Potentiation @ 3.33 μM Avg: 3.33 μM solution of test compound, percentage increase of baseline TMEM16A current; for EC50: calculated EC50, Qpatch TMEM16A current at +70 mV
Summary of the method: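 FRT cells stably expressing human TMEM16Aabc were recorded by automated whole-cell patch clamp, with intracellular Ca2+ buffered for ~EC20 activation, holding −70 mV and step to +70 mV at 0.05 Hz. Compound was applied cumulatively, 5 min per concentration. Peak current increase as % of baseline was fitted to give EC50 and maximum efficacy.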

Chain of human TMEM16A (TMEM16Aabc variant) (Q5XXA6 with tags, fused parts or gaps DEL476-501): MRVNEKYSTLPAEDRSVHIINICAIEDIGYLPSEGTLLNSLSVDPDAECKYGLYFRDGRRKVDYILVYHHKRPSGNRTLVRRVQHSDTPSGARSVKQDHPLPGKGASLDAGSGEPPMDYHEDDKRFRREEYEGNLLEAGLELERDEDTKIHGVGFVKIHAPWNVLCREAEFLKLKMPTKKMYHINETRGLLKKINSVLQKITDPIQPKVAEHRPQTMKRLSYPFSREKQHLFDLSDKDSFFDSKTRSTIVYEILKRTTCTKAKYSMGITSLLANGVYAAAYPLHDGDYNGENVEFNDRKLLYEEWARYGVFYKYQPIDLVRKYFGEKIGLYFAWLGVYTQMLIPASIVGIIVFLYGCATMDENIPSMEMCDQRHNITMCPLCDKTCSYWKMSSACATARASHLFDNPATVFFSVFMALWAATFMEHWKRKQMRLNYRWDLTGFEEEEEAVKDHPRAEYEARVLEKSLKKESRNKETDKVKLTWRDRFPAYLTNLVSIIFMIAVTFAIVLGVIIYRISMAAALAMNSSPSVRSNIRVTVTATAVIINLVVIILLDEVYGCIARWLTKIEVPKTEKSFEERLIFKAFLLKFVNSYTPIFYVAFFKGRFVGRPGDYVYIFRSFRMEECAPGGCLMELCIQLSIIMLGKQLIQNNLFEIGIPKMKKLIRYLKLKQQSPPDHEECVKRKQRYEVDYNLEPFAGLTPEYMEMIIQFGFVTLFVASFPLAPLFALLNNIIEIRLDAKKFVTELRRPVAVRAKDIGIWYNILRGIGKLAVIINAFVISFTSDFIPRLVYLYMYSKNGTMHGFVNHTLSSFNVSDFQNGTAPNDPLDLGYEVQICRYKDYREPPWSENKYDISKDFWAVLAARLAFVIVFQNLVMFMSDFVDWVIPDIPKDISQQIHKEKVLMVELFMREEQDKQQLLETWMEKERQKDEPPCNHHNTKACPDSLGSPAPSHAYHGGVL

SMILES | % Potentiation @ 3.33 μM Avg [2] [%] | Storage at 40° C./75% RH (change of form by XRPD) [1] | EC50 [2] [µM]
C#CC(C)(C)NC(=O)c1cc(NC(=O)Cc2cc(Cl)ccc2O)ccn1 [Compound 36 Form B, 4-[[2-(5-Chloro-2-hydroxy-phenyl)acetyl]amino]-N-(1,1-dimethylprop-2-ynyl)pyridine-2-carboxamide] |  | stable; also recorded: No change (7 days) | 
C#CC(C)(C)NC(=O)c1cc(NC(=O)Cc2cc(Cl)ccc2O)ccn1 [Compound 36 Form C, 4-[[2-(5-Chloro-2-hydroxy-phenyl)acetyl]amino]-N-(1,1-dimethylprop-2-ynyl)pyridine-2-carboxamide] |  | Changed to mainly | 
CC(C)(C)NC(=O)c1cc(NC(=O)Cc2cc(Cl)ccc2O)ncn1 [Example 85, N-tert-Butyl-6-[[2-(5-chloro-2-hydroxy-phenyl)acetyl]amino] pyrimidine-4-carboxamide] | 155 |  | 0.35
COCC(C#N)(COC)NC(=O)c1cc(NC(=O)Cc2cc(Cl)ccc2O)ccn1 [Example 86, 4-[[2-(5-Chloro-2-hydroxy-phenyl)acetyl]amino]-N-[1-cyano-2-methoxy-1-(methoxymethyl)ethyl]pyridine-2-carboxamide] | 593 |  | 0.35
CC(C)(C)NC(=O)c1cc(NC(=O)Cc2ccc(C(C)(C)C)c(N)c2)ccn1 [Example 87, 4-[[2-(3-Amino-4-tert-butyl-phenyl)acetyl]amino]-N-tert-butyl-pyridine-2-carboxamide] | 332 |  | 0.22
CC(C)(C)NC(=O)c1cc(NC(=O)Cc2ccc(C(C)(C)C)cc2N)ccn1 [Example 88, 4-[[2-(2-Amino-4-tert-butyl-phenyl)acetyl]amino]-N-tert-butyl-pyridine-2-carboxamide] | 270 |  | 0.24
CC(C)(C)NC(=O)c1cc(NC(=O)Cc2ccc(C(C)(C)C)c(O)c2)ccn1 [Example 89, N-tert-Butyl-4-[[2-(4-tert-butyl-3-hydroxy-phenyl)acetyl]amino]pyridine-2-carboxamide] | 366 |  | 0.09
CC(C)(C)NC(=O)c1cc(NC(=O)Cc2ccc(C(C)(C)C)cc2O)ccn1 [Example 90, N-tert-Butyl-4-[[2-(4-tert-butyl-2-hydroxy-phenyl)acetyl]amino]pyridine-2-carboxamide] | 219 |  | 0.12
N#CC1(NC(=O)c2cc(NC(=O)Cc3ccc(Cl)c(O)c3)ccn2)CCOCC1 [Example 92, 4-[[2-(4-Chloro-3-hydroxy-phenyl)acetyl]amino]-N-(4-cyanotetrahydropyran-4-yl)pyridine-2-carboxamide] | 133 |  | 0.11
CC(C)(C#N)NC(=O)c1cc(NC(=O)Cc2ccc(Cl)c(O)c2)ccn1 [Example 92.1, 4-[[2-(4-Chloro-3-hydroxy-phenyl)acetyl]amino]-N-(1-cyano-1-methyl-ethyl)pyridine-2-carboxamide] | 151 |  | 0.14
CC(C)(C)c1ccc(CC(=O)Nc2ccnc(C(=O)N[C@H]3CCCC[C@@H]3O)c2)cc1O [Example 93.1, 4-[2-(4-tert-butyl-3-hydroxyphenyl)acetamido]-N-[(1S,2S)-2-hydroxycyclohexyl]pyridine-2-carboxamide] | 207 |  | 0.05
CC(C)(C)c1ccc(CC(=O)Nc2ccnc(C(=O)N[C@H]3CCC[C@@H]3O)c2)cc1O [Example 93.2, 4-[2-(4-tert-butyl-3-hydroxyphenyl)acetamido]-N-[(1S,2S)-2-hydroxycyclopentyl]pyridine-2-carboxamide] | 220 |  | 0.04
CC(C)(C)c1ccc(CC(=O)Nc2ccnc(C(=O)NC3(C#N)CCOCC3)c2)cc1O [Example 93.3, 4-[[2-(4-tert-Butyl-3-hydroxy-phenyl)acetyl]amino]-N-(4-cyanotetrahydropyran-4-yl)pyridine-2-carboxamide] | 130 |  | 0.06
CC(C)(C#N)NC(=O)c1cc(NC(=O)Cc2ccc(C(C)(C)C)c(O)c2)ccn1 [Example 93.4, 4-[[2-(4-tert-Butyl-3-hydroxy-phenyl)acetyl]amino]-N-(1-cyano-1-methyl-ethyl)pyridine-2-carboxamide] | 476 |  | 0.07
C#CC(C)(C)NC(=O)c1cc(NC(=O)Cc2ccc(C(C)(C)C)c(O)c2)ccn1 [Example 93.5, 4-[[2-(4-tert-Butyl-3-hydroxy-phenyl)acetyl]amino]-N-(1,1-dimethylprop-2-ynyl)pyridine-2-carboxamide] | 136 |  | 0.02
CC(C)(NC(=O)c1cc(NC(=O)Cc2cc(Cl)ccc2O)ccn1)c1ccccc1 [Example 94, 4-[[2-(5-Chloro-2-hydroxy-phenyl)acetyl]amino]-N-(1-methyl-1-phenyl-ethyl) pyridine-2-carboxamide] | 516 |  | 0.34

Further lines, with some results ahead:

% Potentiation @ 3.33 μM Avg [2] [%] | SMILES | Storage at 40° C./75% RH (change of form by XRPD) [1] | EC50 [2] [µM]
16 | CCn1c(C(=O)Nc2ccnc(C(=O)NC(C)(C)C#N)c2)cc2ccccc21 [Example 83.18, N-[2-[(1-Cyano-1-methyl-ethyl)carbamoyl]-4-pyridyl]-1-ethyl-indole-2-carboxamide] |  | 
28 | CC(C)(C#N)NC(=O)c1cc(NC(=O)c2ccnn2CC(F)(F)F)ccn1 [Example 83.19, N-(1-Cyano-1-methyl-ethyl)-4-[[2-(2,2,2-trifluoroethyl)pyrazole-3-carbonyl]amino]pyridine-2-carboxamide] |  | 
9 | CC(C)(C#N)NC(=O)c1cc(NC(=O)c2conc2-c2ccccc2)ccn1 [Example 83.20, N-[2-[(1-Cyano-1-methyl-ethyl)carbamoyl]-4-pyridyl]-3-phenyl-isoxazole-4-carboxamide] |  | 
70 | CC(C)(C#N)NC(=O)c1cc(NC(=O)c2cnn(Cc3ccccc3)c2)ccn1 [Example 83.21, 4-[(1-Benzylpyrazole-4-carbonyl)amino]-N-(1-cyano-1-methyl-ethyl)pyridine-2-carboxamide] |  | 
85 | Cn1nc(-c2ccccc2)cc1C(=O)Nc1ccnc(C(=O)NC(C)(C)C#N)c1 [Example 83.22, N-(1-Cyano-1-methyl-ethyl)-4-[(2-methyl-5-phenyl-pyrazole-3-carbonyl)amino]pyridine-2-carboxamide] |  | 
-11 | Cc1noc(-c2ccccc2C(=O)Nc2ccnc(C(=O)NC(C)(C)C#N)c2)n1 [Example 83.23, N-(1-Cyano-1-methyl-ethyl)-4-[[2-(3-methyl-1,2,4-oxadiazol-5-yl)benzoyl]amino]pyridine-2-carboxamide] |  | 
55 | Cc1nn(-c2ccccc2)cc1C(=O)Nc1ccnc(C(=O)NC(C)(C)C#N)c1 [Example 83.24, N-(1-Cyano-1-methyl-ethyl)-4-[(3-methyl-1-phenyl-pyrazole-4-carbonyl)amino]pyridine-2-carboxamide] |  | 
-8 | CC(C)(C#N)NC(=O)c1cc(NC(=O)c2cccnc2Oc2ccccc2)ccn1 [Example 83.25, N-[2-[(1-Cyano-1-methyl-ethyl)carbamoyl]-4-pyridyl]-2-phenoxy-pyridine-3-carboxamide] |  | 
95 | Cc1cc(C(=O)Nc2ccnc(C(=O)NC(C)(C)C#N)c2)c(C)n1Cc1cccs1 [Example 83.26, N-(1-Cyano-1-methyl-ethyl)-4-[[2,5-dimethyl-1-(2-thienylmethyl)pyrrole-3-carbonyl]amino]pyridine-2-carboxamide] |  | 
-11 | COc1ccccc1-c1cc(C(=O)Nc2ccnc(C(=O)NC(C)(C)C#N)c2)no1 [Example 83.27, N-[2-[(1-Cyano-1-methyl-ethyl)carbamoyl]-4-pyridyl]-5-(2-methoxyphenyl)isoxazole-3-carboxamide] |  | 
20 | Cc1nc(-c2ccccc2)sc1C(=O)Nc1ccnc(C(=O)NC(C)(C)C#N)c1 [Example 83.28, N-[2-[(1-Cyano-1-methyl-ethyl)carbamoyl]-4-pyridyl]-4-methyl-2-phenyl-thiazole-5-carboxamide] |  | 
-9 | CC(=O)Nc1ccc(C(=O)Nc2ccnc(C(=O)NC(C)(C)C#N)c2)cc1 [Example 83.29, 4-[(4-Acetamidobenzoyl)amino]-N-(1-cyano-1-methyl-ethyl)pyridine-2-carboxamide] |  | 
93 | CC(C)(C#N)NC(=O)c1cc(NC(=O)c2cccc3ncsc23)ccn1 [Example 83.30, N-[2-[(1-Cyano-1-methyl-ethyl)carbamoyl]-4-pyridyl]-1,3-benzothiazole-7-carboxamide] |  | 
78 | CC(CC(=O)Nc1ccnc(C(=O)NC(C)(C)C#N)c1)c1ccc(F)cc1 (centres unmarked) [Example 83.31, N-(1-Cyano-1-methyl-ethyl)-4-[3-(4-fluorophenyl)butanoylamino]pyridine-2-carboxamide] |  | 
-16 | Cn1c(=O)c(C(=O)Nc2ccnc(C(=O)NC(C)(C)C#N)c2)cc2ccccc21 [Example 83.32, N-[2-[(1-Cyano-1-methyl-ethyl)carbamoyl]-4-pyridyl]-1-methyl-2-oxo-quinoline-3-carboxamide] |  | 
71 | C#CC(C)(C)NC(=O)c1cc(NC(=O)Cc2ccc(Cl)c(O)c2)ccn1 [Example 92.2, 4-[[2-(4-Chloro-3-hydroxy-phenyl)acetyl]amino]-N-(1,1-dimethylprop-2-ynyl)pyridine-2-carboxamide] |  | 0.01
